Here are results for 79 molecules from patent publication US20250090540A1, “PI3K-ALPHA INHIBITORS AND METHODS OF USE THEREOF” (Relay Therapeutics, Inc., priority 2021, published 2025).

The structures appear in SMILES notation.

The target in this assay is H1047R PIK3CA enzyme (Homo sapiens, UniProt P42336, H1047R). The experiment in a line: ADP-Glo Biochemical PIK3CA Kinase Assay. Particulars: ADP-Glo biochemical PIK3CA kinase assay.
Sequence of H1047R PIK3CA enzyme (P42336 whole entry H1047R): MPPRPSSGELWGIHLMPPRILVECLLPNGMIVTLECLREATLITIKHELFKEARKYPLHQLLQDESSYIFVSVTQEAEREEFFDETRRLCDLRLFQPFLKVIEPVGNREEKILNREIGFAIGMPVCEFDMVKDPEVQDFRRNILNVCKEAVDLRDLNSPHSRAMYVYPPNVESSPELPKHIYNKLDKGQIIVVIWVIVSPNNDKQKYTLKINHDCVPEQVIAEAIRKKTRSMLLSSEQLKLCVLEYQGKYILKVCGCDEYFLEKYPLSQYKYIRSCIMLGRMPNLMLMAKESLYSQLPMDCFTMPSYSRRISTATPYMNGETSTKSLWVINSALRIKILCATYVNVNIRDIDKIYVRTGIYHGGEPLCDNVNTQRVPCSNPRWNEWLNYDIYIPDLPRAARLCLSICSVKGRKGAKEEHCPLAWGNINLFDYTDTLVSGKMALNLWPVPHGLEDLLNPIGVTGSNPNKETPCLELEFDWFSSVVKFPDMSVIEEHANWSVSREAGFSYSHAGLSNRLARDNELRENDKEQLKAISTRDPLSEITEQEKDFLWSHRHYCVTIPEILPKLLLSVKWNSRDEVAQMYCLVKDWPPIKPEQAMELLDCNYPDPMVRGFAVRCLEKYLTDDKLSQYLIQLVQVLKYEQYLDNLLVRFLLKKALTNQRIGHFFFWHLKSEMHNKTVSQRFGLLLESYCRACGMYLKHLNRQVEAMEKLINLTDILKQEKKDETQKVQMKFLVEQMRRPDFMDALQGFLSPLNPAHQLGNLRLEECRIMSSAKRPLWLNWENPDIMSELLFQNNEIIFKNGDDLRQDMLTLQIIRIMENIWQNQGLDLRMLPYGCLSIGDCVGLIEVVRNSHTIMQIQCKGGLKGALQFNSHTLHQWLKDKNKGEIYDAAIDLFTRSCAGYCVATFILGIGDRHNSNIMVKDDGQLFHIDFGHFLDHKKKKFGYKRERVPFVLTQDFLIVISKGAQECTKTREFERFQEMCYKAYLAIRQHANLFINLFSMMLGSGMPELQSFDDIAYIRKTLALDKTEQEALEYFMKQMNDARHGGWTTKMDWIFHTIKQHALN
Sequence of H1047R PIK3CA enzyme (P27986 whole entry partner): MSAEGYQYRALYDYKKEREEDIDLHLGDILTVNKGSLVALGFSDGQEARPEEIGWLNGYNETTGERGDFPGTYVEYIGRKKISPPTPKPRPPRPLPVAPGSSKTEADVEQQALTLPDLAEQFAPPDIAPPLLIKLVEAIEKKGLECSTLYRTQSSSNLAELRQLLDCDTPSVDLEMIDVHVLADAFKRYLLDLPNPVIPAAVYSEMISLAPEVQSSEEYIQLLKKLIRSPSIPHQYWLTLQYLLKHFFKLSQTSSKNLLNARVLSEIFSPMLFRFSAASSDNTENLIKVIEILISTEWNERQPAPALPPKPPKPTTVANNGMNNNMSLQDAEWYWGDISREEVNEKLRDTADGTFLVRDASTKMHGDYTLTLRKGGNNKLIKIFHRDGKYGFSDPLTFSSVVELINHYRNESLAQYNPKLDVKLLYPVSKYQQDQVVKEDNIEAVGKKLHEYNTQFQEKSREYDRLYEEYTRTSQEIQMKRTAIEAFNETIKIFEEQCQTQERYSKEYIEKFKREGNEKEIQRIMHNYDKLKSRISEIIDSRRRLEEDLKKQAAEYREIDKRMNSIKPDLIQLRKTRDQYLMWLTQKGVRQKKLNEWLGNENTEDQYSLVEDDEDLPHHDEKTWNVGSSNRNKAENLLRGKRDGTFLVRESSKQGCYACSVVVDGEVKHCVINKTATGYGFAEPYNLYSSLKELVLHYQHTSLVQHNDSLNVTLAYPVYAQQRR

Take `CNC(=O)c1cnc(Nc2ccccc2C)c(NC(=O)C2CCCC3CCCCC32)c1` (stereo not shown) [I-464]: the IC50 fell in the range of 10 to 100 µM.
In turn, `CCc1c(Cl)c(C(=O)Nc2cc(C(=O)NC)cnc2Nc2ccccc2C)nn1C` [I-465] gave an IC50 of 10 to 100 µM.
Molecule `CNC(=O)c1cnc(Nc2ccccc2C)c(NC(=O)c2cccc(C#N)c2Cl)c1` [I-466] gave an IC50 of 10 to 100 µM.
As for `CNC(=O)c1cnc(Nc2ccccc2C)c(NC(=O)Cc2c[nH]c3cc(F)c(F)cc23)c1` [I-467], the figure is 10 to 100 µM; as for `CNC(=O)c1cnc(Nc2ccccc2C)c(NC(=O)c2cnc3ccc(F)cn23)c1` [I-469], 10 to 100 µM; as for `CNC(=O)c1cnc(Nc2ccccc2C)c(NC(=O)c2cc(Cl)cc3cccnc23)c1` [I-470], 10 to 100 µM.
Take `CNC(=O)c1cnc(Nc2ccccc2C)c(NC(=O)C(C)Cc2ccc(F)cc2)c1` (stereo not shown) [I-471]: the IC50 lay within 10 to 100 µM.
`CNC(=O)c1cnc(Nc2ccccc2C)c(NC(=O)c2nn(C)c3c2CCC3)c1` [I-472] returned a half-maximal inhibitory concentration (IC50) of 10 to 100 µM.
`CNC(=O)c1cnc(Nc2ccccc2C)c(NC(=O)c2cn[nH]c2-c2ccc(F)cc2)c1` [I-473]: the IC50 was in the range of 10 to 100 µM.
As for `CNC(=O)c1cnc(Nc2ccccc2C)c(NC(=O)c2cccc3c2OC(C)(C)CC3)c1` [I-474], the figure is 10 to 100 µM; as for `CNC(=O)c1cnc(Nc2ccccc2C)c(NC(=O)C2(c3cccc(F)c3)CC2)c1` [I-475], 1 to 10 µM; as for `CNC(=O)c1cnc(Nc2ccccc2C)c(NC(=O)c2cc(Br)cc(C(C)C)c2)c1` [I-476], 10 to 100 µM.
The molecule `CNC(=O)c1cnc(Nc2ccccc2C)c(NC(=O)C2CCc3cccc(Cl)c32)c1` (stereo not shown) [I-477] returned an IC50 of 10 to 100 µM.
`CNC(=O)c1cnc(Nc2ccccc2C)c(NC(=O)c2cc(C)cc(OC)c2)c1` [I-478] yielded an IC50 of 10 to 100 µM.
`CNC(=O)c1cnc(Nc2ccccc2C)c(NC(=O)c2ccc(F)c(C)c2Cl)c1` [I-479] yielded an IC50 of 10 to 100 µM.
In the case of `CNC(=O)c1cnc(Nc2ccccc2C)c(NC(=O)c2cn(C)c3ncccc23)c1` [I-480] it was 10 to 100 µM; in that of `CNC(=O)c1cnc(Nc2ccccc2C)c(NC(=O)C2(c3ccc(F)c(F)c3)CC2)c1` [I-481], 10 to 100 µM.
The molecule `CNC(=O)c1cnc(Nc2ccccc2C)c(NC(=O)CC(C)Oc2ccccc2)c1` (stereo not shown) [I-482] came in with an IC50 of 10 to 100 µM.
As for `CNC(=O)c1cnc(Nc2ccccc2C)c(NC(=O)c2coc3cccc(Br)c23)c1` [I-483], the IC50 is 10 to 100 µM.
As for `CNC(=O)c1cnc(Nc2ccccc2C)c(NC(=O)c2ccc(C(F)F)cn2)c1` [I-484], the figure is 10 to 100 µM; as for `CNC(=O)c1cnc(Nc2ccccc2C)c(NC(=O)c2cc3c(Br)cccc3[nH]2)c1` [I-485], 10 to 100 µM; as for `Cc1ccccc1Nc1ncc(C(=O)NC2CCOc3ccccc32)cc1NC(=O)c1csc2ccccc12` (stereo not shown) [I-487], 10 to 100 µM.
The molecule `CNC(=O)c1cnc(Nc2ccccc2C)c(NC(=O)c2cc3cc(F)ccc3o2)c1` [I-488] returned an IC50 of 10 to 100 µM.
As for `CNC(=O)c1cnc(Nc2ccccc2C)c(NC(=O)c2cc(C)c(F)c(C)c2)c1` [I-489], the IC50 fell in the range of 1 to 10 µM.
As for `CNC(=O)c1cnc(Nc2ccccc2C)c(NC(=O)c2ccc3occ(Cl)c3c2)c1` [I-490], the figure is 10 to 100 µM; as for `CNC(=O)c1cnc(Nc2ccccc2C)c(NC(=O)c2cc(C)cc(F)c2F)c1` [I-491], 10 to 100 µM; as for `CNC(=O)c1cnc(Nc2ccccc2C)c(NC(=O)c2ncsc2C(F)(F)F)c1` [I-492], 10 to 100 µM.
As for `CNC(=O)c1cnc(Nc2ccccc2C)c(NC(=O)C2CCC(F)(F)CC2)c1` [I-493], the IC50 is 10 to 100 µM.
`CNC(=O)c1cnc(Nc2ccccc2C)c(NC(=O)c2cccc3ccoc23)c1` [I-494] returned an IC50 of 10 to 100 µM.
For `CNC(=O)c1cnc(Nc2ccccc2C)c(NC(=O)c2cc(F)ccc2OC(F)(F)F)c1` [I-495], the IC50 is 10 to 100 µM.
For the molecule `CNC(=O)c1cnc(Nc2ccccc2C)c(NC(=O)CCc2cc(F)ccc2Br)c1` [I-497], the IC50 fell in the range of 10 to 100 µM.
`Cc1ccccc1Nc1ncc(C(=O)Nc2cnn3cccc(F)c23)cc1NC(=O)c1csc2ccccc12` [I-500] gave an IC50 of 10 to 100 µM.
In the case of `CNC(=O)c1cnc(Nc2ccccc2C)c(NC(=O)Cc2cccc(Br)c2F)c1` [I-501] it was 10 to 100 µM.
`CNC(=O)c1cnc(Nc2ccccc2C)c(NC(=O)Cc2ccc(F)cc2C(F)(F)F)c1` [I-502] returned an IC50 of 10 to 100 µM.
In turn, `CNC(=O)c1cnc(Nc2ccccc2C)c(NC(=O)C2(c3cccc(Br)c3)CC2)c1` [I-503] came in with an IC50 of 10 to 100 µM.
Molecule `CNC(=O)c1cnc(Nc2ccccc2C)c(NC(=O)c2ccc3c(c2)CCN3C)c1` [I-504] showed an IC50 of 10 to 100 µM.
Consider `CNC(=O)c1cnc(Nc2ccccc2C)c(NC(=O)c2cc3ccccc3n2C)c1` [I-505], for which the IC50 was in the range of 10 to 100 µM.
As to `CNC(=O)c1cnc(Nc2ccccc2C)c(NC(=O)c2cc3c(Cl)cc(Cl)cc3[nH]2)c1` [I-507], the IC50 lay within 1 to 10 µM.
`CNC(=O)c1cnc(Nc2ccccc2C)c(NC(=O)c2cn3cccc(Br)c3n2)c1` [I-509] came in with an IC50 of 10 to 100 µM.
On to `Cc1ccccc1Nc1ncc(C(=O)NCC2(C#N)CCCC2)cc1NC(=O)c1csc2ccccc12` [I-511], for which the IC50 lay within 10 to 100 µM.
In the case of `CCOc1c(F)c(F)cc(C(=O)Nc2cc(C(=O)NC)cnc2Nc2ccccc2C)c1F` [I-512] it was 10 to 100 µM.
`CNC(=O)c1cnc(Nc2ccccc2C)c(NC(=O)C2(c3cccc(Cl)c3)CC2)c1` [I-513] returned an IC50 of 10 to 100 µM.
The molecule `CNC(=O)c1cnc(Nc2ccccc2C)c(NC(=O)c2c[nH]c3ccc(Cl)cc23)c1` [I-514] had an IC50 of 10 to 100 µM.
In the case of `CNC(=O)c1cnc(Nc2ccccc2C)c(NC(=O)c2ccc(Br)c3cccnc23)c1` [I-516] it was 10 to 100 µM.
The molecule `CNC(=O)c1cnc(Nc2ccccc2C)c(NC(=O)CCc2cc(Cl)ccc2Cl)c1` [I-517] returned an IC50 of 10 to 100 µM.
`CNC(=O)c1cnc(Nc2ccccc2C)c(NC(=O)c2cccc3ccn(C)c23)c1` [I-518] registered a half-inhibitory concentration (IC50) of 10 to 100 µM.
Consider `Cc1ccccc1Nc1ncc(C(=O)Nc2c3c(nn2C)CCC3)cc1NC(=O)c1csc2ccccc12` [I-521], for which the IC50 lay in the range of 10 to 100 µM.
Molecule `CNC(=O)c1cnc(Nc2ccccc2C)c(NC(=O)c2[nH]c3ccccc3c2Br)c1` [I-522] returned an IC50 of 10 to 100 µM.
As for `CNC(=O)c1cnc(Nc2ccccc2C)c(NC(=O)c2ccc3c(ccn3C)c2)c1` [I-523], the IC50 was 10 to 100 µM.
Regarding `CNC(=O)c1cnc(Nc2ccccc2C)c(NC(=O)c2ccc(C(F)(F)F)n2C)c1` [I-524], the IC50 was in the range of 10 to 100 µM.
`CNC(=O)c1cnc(Nc2ccccc2C)c(NC(=O)c2c[nH]c3cccc(Cl)c23)c1` [I-528]: the IC50 was 10 to 100 µM.
As for `CNC(=O)c1cnc(Nc2ccccc2C)c(NC(=O)c2cccc3c2OC(C)(C)C3)c1` [I-529], the IC50 is 10 to 100 µM.
As for `Cc1ccccc1Nc1ncc(C(=O)NCC2CCC(F)(F)C2)cc1NC(=O)c1csc2ccccc12` (stereo not shown) [I-531], the figure is 10 to 100 µM; as for `Cc1ccccc1Nc1ncc(C(=O)N2CC(C)(F)C2)cc1NC(=O)c1csc2ccccc12` [I-536], 1 to 10 µM; as for `CNC(=O)c1cnc(Nc2ccccc2C)c(NC(=O)c2ccc(Cl)c(C)c2F)c1` [I-537], 10 to 100 µM.
`COC1CN(C(=O)c2cnc(Nc3ccccc3C)c(NC(=O)c3csc4ccccc34)c2)C1` [I-541] registered an IC50 of 1 to 10 µM.
The molecule `CNC(=O)c1cnc(Nc2ccccc2C)c(NC(=O)CCc2cc(Br)ccc2F)c1` [I-542] returned an IC50 of 10 to 100 µM.
Consider `Cc1ccccc1Nc1ncc(C(=O)N2CC(C)(C#N)C2)cc1NC(=O)c1csc2ccccc12` [I-543], for which the IC50 fell in the range of 1 to 10 µM.
`Cc1ccccc1Nc1c(NC(=O)c2csc3ccccc23)ccn(C)c1=O` [I-548] yielded an IC50 of 1 to 10 µM.
In the case of `COc1ccc(SC2(C(=O)O)CC(=O)NC2c2ccccc2C)cc1` (stereo not shown) [I-549] it was 1 to 10 µM; in that of `CNC(=O)c1cnc(NCCC#N)c(NC(=O)c2cc(F)cc(C(F)(F)F)c2)c1` [I-550], 1 to 10 µM; in that of `CNC(=O)c1cnc(Nc2ccccc2C)c(NC(=O)c2csc3cncnc23)c1` [I-551], 1 to 10 µM.
In the case of `Cc1ccccc1Nc1c(NC(=O)c2csc3ccccc23)ccc2cc[nH]c12` [I-552] it was 1 to 10 µM.
`Cc1ccccc1Nc1nnccc1NC(=O)c1csc2ccccc12` [I-553] gave an IC50 of 1 to 10 µM.
As for `CNC(=O)c1cnc(Nc2ccccc2C)c(NC(=O)c2nc(Cl)cc3ccccc23)c1` [I-555], the IC50 was 1 to 10 µM.
As for `CNC(=O)c1cnc(Nc2ccccc2C)c(NC(=O)c2cc(C)cc(C#N)c2)c1` [I-556], the figure is 1 to 10 µM.
In the case of `CNC(=O)c1cnc(Nc2ccccc2C)c(NC(=O)Cc2cc3cccnc3cc2F)c1` [I-557] it was 1 to 10 µM; in that of `CNC(=O)c1cnc(Nc2ccccc2C)c(NC(=O)Cc2ccc3ncccc3c2)c1` [I-558], 1 to 10 µM; in that of `Cc1ccccc1Nc1ncc(C(=O)N[C@@H]2C3CCC(C3)[C@H]2C(=O)O)cc1NC(=O)c1csc2ccccc12` (stereo partly shown) [I-559], 1 to 10 µM.
As for `Cc1ccccc1Nc1ncc(C(=O)NCC2(O)CCCC2)cc1NC(=O)c1csc2ccccc12` [I-562], the figure is 0.5 to 1 µM; as for `Cc1ccccc1Nc1ncc(C(=O)NCC(C)(C)O)cc1NC(=O)c1csc2ccccc12` [I-565], 1 to 10 µM; as for `CNC(=O)c1cnc(Nc2ccccc2C)c(NC(=O)c2cccc(F)c2Cl)c1` [I-566], 1 to 10 µM.
The molecule `CNC(=O)c1cnc(Nc2ccccc2C)c(NC(=O)c2ccc(CO)c(F)c2)c1` [I-567] yielded an IC50 of 1 to 10 µM.
Take `Cc1ccccc1Nc1ncc(C(=O)NC2CCN(C)C2)cc1NC(=O)c1csc2ccccc12` (stereo not shown) [I-574]: the IC50 is 1 to 10 µM.
Molecule `CNC(=O)c1cnc(Nc2ccccc2C)c(NC(=O)c2ccc3ncc(Br)n3c2)c1` [I-575] returned an IC50 of 0.5 to 1 µM.
In the case of `Cc1ccccc1Nc1ncc(C(=O)N2CC3(COC3)C2)cc1NC(=O)c1csc2ccccc12` [I-576] it was 1 to 10 µM; in that of `CNC(=O)c1cnc(Nc2ccccc2C)c(NC(=O)c2cccc(COC)c2)c1` [I-577], 1 to 10 µM; in that of `Cc1ccccc1Nc1ncc(C(=O)NCc2ncccn2)cc1NC(=O)c1csc2ccccc12` [I-586], 0.5 to 1 µM.
For `CNC(=O)c1cnc(Nc2ccccc2C)c(NC(=O)Cc2cc(Cl)cc(C(F)(F)F)c2)c1` [I-587], the IC50 lay in the range of 1 to 10 µM.

The IC50 is the point on the concentration scale where inhibition reaches its midpoint.
